From PubChem BioAssay AID1963974 (Molecular Pharmacology Branch, DTP, NCI, 2024)

Tested on: 648629-189-R-J1-PDC spheroids with HUVEC/MSC, viability
Test: Anticancer human tumor 648629-189-R-J1-PDC patient-derived bladder carcinoma cell line growth inhibition [PI3K]
Conditions: for IC50: curve of first compound; for viability, T/C: stronger effect = lower value; active means viability on the fitted dose curve at most 10% of control; inactive means the rest
Summary of the method: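 Complex 3D spheroids (cancer cells + endothelial HUVEC + mesenchymal stem cells); drug pairs of targeted agent x inavolisib/alpelisib/duvelisib/copanlisib; half-log series from ~Cmax, max 10 microM if Cmax unknown; endpoint viability.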

[1] = second compound 0.0316 µM, first compound 0.0316 µM
[2] = second compound 0.0316 µM, first compound 0.1 µM
[3] = second compound 0.1 µM, first compound 0.0316 µM
[4] = second compound 0.1 µM, first compound 0.1 µM
[5] = second compound 0.316 µM, first compound 0.0316 µM
[6] = second compound 0.316 µM, first compound 0.1 µM
[7] = second compound 1 µM, first compound 0.0316 µM
[8] = second compound 1 µM, first compound 0.1 µM
[9] = second compound 3.16 µM, first compound 0.0316 µM
[10] = second compound 3.16 µM, first compound 0.1 µM
[11] = second compound 10 µM, first compound 0.0316 µM
[12] = second compound 10 µM, first compound 0.1 µM
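Further: spheroids exposed to agents for seven days before reading.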
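Wherever viability, T/C is given: percent of vehicle control luminescence where 100% = DMSO treated spheroids.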

CC(C)n1nc(-c2ccc3oc(N)nc3c2)c2c(N)ncnc21 + Cc1nc(NC(=O)N2CCCC2C(N)=O)sc1-c1ccnc(C(C)(C)C(F)(F)F)c1
56.7 nM: IC50 (second compound 0.1 µM)
inactive: viability, T/C (second compound 0.0316 µM, first compound 0.000316 µM) 111% | viability, T/C (second compound 0.0316 µM, first compound 0.001 µM) 95.1% | viability, T/C (second compound 0.0316 µM, first compound 0.00316 µM) 109% | viability, T/C (second compound 0.0316 µM, first compound 0.01 µM) 97.5% | viability, T/C [1] 70.2% | viability, T/C [2] 32.6% | viability, T/C (second compound 0.1 µM, first compound 0.000316 µM) 102% | viability, T/C (second compound 0.1 µM, first compound 0.001 µM) 94.9% | viability, T/C (second compound 0.1 µM, first compound 0.00316 µM) 91.7% | viability, T/C (second compound 0.1 µM, first compound 0.01 µM) 84.6% | viability, T/C [3] 68% | viability, T/C [4] 32.8% | viability, T/C (second compound 0.316 µM, first compound 0.000316 µM) 87.3% | viability, T/C (second compound 0.316 µM, first compound 0.001 µM) 83.5% | viability, T/C (second compound 0.316 µM, first compound 0.00316 µM) 83.5% | viability, T/C (second compound 0.316 µM, first compound 0.01 µM) 82% | viability, T/C [5] 66.1% | viability, T/C [6] 29.1% | viability, T/C (second compound 1 µM, first compound 0.000316 µM) 80.9% | viability, T/C (second compound 1 µM, first compound 0.001 µM) 85.2% | viability, T/C (second compound 1 µM, first compound 0.00316 µM) 74.2% | viability, T/C (second compound 1 µM, first compound 0.01 µM) 64.5% | viability, T/C [7] 53.9% | viability, T/C [8] 23.2% | viability, T/C (second compound 3.16 µM, first compound 0.000316 µM) 63.9% | viability, T/C (second compound 3.16 µM, first compound 0.001 µM) 54.8% | viability, T/C (second compound 3.16 µM, first compound 0.00316 µM) 60.5% | viability, T/C (second compound 3.16 µM, first compound 0.01 µM) 48.6% | viability, T/C [9] 40.7% | viability, T/C [10] 19.1% | viability, T/C (second compound 10 µM, first compound 0.000316 µM) 41.4% | viability, T/C (second compound 10 µM, first compound 0.001 µM) 37.5% | viability, T/C (second compound 10 µM, first compound 0.00316 µM) 37.5% | viability, T/C (second compound 10 µM, first compound 0.01 µM) 33.6% | viability, T/C [11] 27.7% | viability, T/C [12] 9.34%
< 0.316 nM: IC50 (second compound 10 µM)
11 nM: IC50 (second compound 3.16 µM)
33.3 nM: IC50 (second compound 1 µM)
52.7 nM: IC50 (second compound 0.316 µM)
58.6 nM: IC50 (second compound 0.0316 µM)

CC1(C)CCC(CN2CCN(c3ccc(C(=O)NS(=O)(=O)c4ccc(NCC5CCOCC5)c([N+](=O)[O-])c4)c(Oc4cnc5[nH]ccc5c4)c3)CC2)=C(c2ccc(Cl)cc2)C1 + Cc1nc(NC(=O)N2CCCC2C(N)=O)sc1-c1ccnc(C(C)(C)C(F)(F)F)c1
4720 nM: IC50 (second compound 0.316 µM)
3710 nM: IC50 (second compound 3.16 µM)
4730 nM: IC50 (second compound 1 µM)
inactive: viability, T/C [1] 122% | viability, T/C [2] 100% | viability, T/C (second compound 0.0316 µM, first compound 0.316 µM) 102% | viability, T/C (second compound 0.0316 µM, first compound 1 µM) 91.6% | viability, T/C (second compound 0.0316 µM, first compound 3.16 µM) 78.4% | viability, T/C (second compound 0.0316 µM, first compound 10 µM) 9.8% | viability, T/C [3] 106% | viability, T/C [4] 102% | viability, T/C (second compound 0.1 µM, first compound 0.316 µM) 106% | viability, T/C (second compound 0.1 µM, first compound 1 µM) 94.9% | viability, T/C (second compound 0.1 µM, first compound 3.16 µM) 71.6% | viability, T/C [5] 98.3% | viability, T/C [6] 85.1% | viability, T/C (second compound 0.316 µM, first compound 0.316 µM) 92.2% | viability, T/C (second compound 0.316 µM, first compound 1 µM) 84.4% | viability, T/C (second compound 0.316 µM, first compound 3.16 µM) 72.5% | viability, T/C [7] 83.8% | viability, T/C [8] 78.1% | viability, T/C (second compound 1 µM, first compound 0.316 µM) 74.3% | viability, T/C (second compound 1 µM, first compound 1 µM) 78.5% | viability, T/C (second compound 1 µM, first compound 3.16 µM) 73.2% | viability, T/C [9] 61.2% | viability, T/C [10] 57% | viability, T/C (second compound 3.16 µM, first compound 0.316 µM) 58.3% | viability, T/C (second compound 3.16 µM, first compound 1 µM) 57.9% | viability, T/C (second compound 3.16 µM, first compound 3.16 µM) 56% | viability, T/C (second compound 3.16 µM, first compound 10 µM) 12.8% | viability, T/C [11] 43.5% | viability, T/C [12] 37.1% | viability, T/C (second compound 10 µM, first compound 0.316 µM) 40.1% | viability, T/C (second compound 10 µM, first compound 1 µM) 38.3% | viability, T/C (second compound 10 µM, first compound 3.16 µM) 43.1% | viability, T/C (second compound 10 µM, first compound 10 µM) 7.34%
active: viability, T/C (second compound 0.1 µM, first compound 10 µM) 9.33% | viability, T/C (second compound 0.316 µM, first compound 10 µM) 9.78% | viability, T/C (second compound 1 µM, first compound 10 µM) 6.85%
4710 nM: IC50 (second compound 0.1 µM)
< 31.6 nM: IC50 (second compound 10 µM)
4850 nM: IC50 (second compound 0.0316 µM)
